Measurements from paper PMC10232832, “ANO1-downregulation induced by schisandrathera D: a novel therapeutic target for the treatment of prostate and oral cancers” (Frontiers in Pharmacology, 2023).

Target: T1, Anoctamin 1 (ANO1) (Homo sapiens, UniProt Q5XXA6)
T1 construct: ANO1 stably expressed in FRT cells
T1 sequence (Q5XXA6 1-986): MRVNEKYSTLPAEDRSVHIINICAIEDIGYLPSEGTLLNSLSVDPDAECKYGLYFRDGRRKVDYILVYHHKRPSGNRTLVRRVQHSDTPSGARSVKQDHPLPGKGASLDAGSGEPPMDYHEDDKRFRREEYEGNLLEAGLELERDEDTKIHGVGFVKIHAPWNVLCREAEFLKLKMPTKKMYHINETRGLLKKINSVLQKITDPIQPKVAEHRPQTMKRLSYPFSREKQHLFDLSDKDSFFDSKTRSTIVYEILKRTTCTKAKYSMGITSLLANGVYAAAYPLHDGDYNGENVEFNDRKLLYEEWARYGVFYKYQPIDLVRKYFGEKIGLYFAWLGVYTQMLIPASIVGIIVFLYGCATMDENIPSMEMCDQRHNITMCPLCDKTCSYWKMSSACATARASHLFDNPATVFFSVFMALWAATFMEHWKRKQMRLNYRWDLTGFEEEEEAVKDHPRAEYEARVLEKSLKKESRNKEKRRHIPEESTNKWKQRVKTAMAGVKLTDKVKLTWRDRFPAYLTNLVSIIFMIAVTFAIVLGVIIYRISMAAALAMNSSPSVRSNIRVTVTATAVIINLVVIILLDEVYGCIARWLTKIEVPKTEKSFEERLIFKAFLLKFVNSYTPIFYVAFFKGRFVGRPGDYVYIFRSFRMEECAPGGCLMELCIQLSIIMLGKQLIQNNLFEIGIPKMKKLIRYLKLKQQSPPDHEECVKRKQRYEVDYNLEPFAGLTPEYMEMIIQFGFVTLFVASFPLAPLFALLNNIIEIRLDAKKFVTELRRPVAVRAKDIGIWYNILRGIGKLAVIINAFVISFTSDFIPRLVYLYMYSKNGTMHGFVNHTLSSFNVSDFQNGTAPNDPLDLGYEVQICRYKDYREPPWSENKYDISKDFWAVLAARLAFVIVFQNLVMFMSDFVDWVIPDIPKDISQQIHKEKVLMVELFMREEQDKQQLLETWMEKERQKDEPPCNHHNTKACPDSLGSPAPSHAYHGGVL
Experiment: YFP fluorescence quenching (iodide influx) assay in FRT cells expressing ANO1 and YFP
Format: cell-based

## COc1cc(C[C@@H](C)[C@@H](C)Cc2cc(O)c(OC)c(OC)c2)cc(O)c1OC [compound 11, schisandrathera D]
  IC50: 5.24 µM
